In patent publication US7608282B2, “Transdermal granisetron” (Strakan International Limited, priority 2003, dated 2009):
Where a name gives a salt, the structure may show the parent alone.

Key:
[1] = acrylic adhesives, WO98/53815; cited from earlier work
[2] = single administration of a 1 mg tablet, human volunteers; cited from earlier work
[3] = test system: delayed emesis in cancer patients; experiment: continual IV infusion of granisetron in cancer patients, delayed emesis (Kalaycio et al.); assay type: in vivo, human; details: continual IV infusion at 40 μg/h
Text: The minimum therapeutic plasma level required for efficacious use of any drug is ideally assessed by titrated, prolonged IV infusion studies coupled to clinical response in patients.

[4] = cited from earlier work
[5] = test system: post-operative nausea and vomiting; details: doses as low as 0.1 mg; cited from earlier work
[6] = test system: delayed emesis in cancer patients; details: continual IV infusion at 40 μg/h; cited from earlier work
[7] = continual twice daily dosing of 1 mg in cancer patients

| Compound | stability in adhesives containing nucleophilic (hydroxyl) moieties [1] | Cmax [2] [ng/mL] | plasma level maintained [3] | average peak plasma levels [4, 7] [ng/mL] | clearance [4, 7] [mL/min/kg] | Tmax ([4]; oral granisetron, population not given) | prevention of post-operative nausea and vomiting [5] | effect on delayed emesis [6] |
| --- | --- | --- | --- | --- | --- | --- | --- | --- |
| CN1[C@@H]2CC[C@H]1C[C@@H](OC(=O)c1c[nH]c3ccccc13)C2 [tropisetron] | unstable |  |  |  |  |  |  |  |
| CN1C2CCCC1CC(NC(=O)c1nn(C)c3ccccc13)C2 (stereo not drawn) [granisetron, N-endo-9-methyl-9-azabicyclo[3.3.1]non-3-yl-1-methylindazole-3-carboxamide hydrochloride] |  | 3.6 | approximately 1.5 ng/ml | 6 | 8.67 | approximately 2 hours | effective | alleviate delayed emesis |
